Our source for the IC50 values is patent US6043248A, “Alpha-substituted pyrimidine-thioalkyl and alkylether compounds as inhibitors of viral reverse transcriptase” (priority 1997, dated 2000).

The first assay deals with T1, P236L viral reverse transcriptase (Human immunodeficiency virus type 1 group M subtype B, UniProt P04585, P823L).
T1 construct: P236L viral reverse transcriptase is obtained by PNAS 90: 4713-4717 (1993); made in house
Put plainly: inhibition of viral reverse transcriptase (P236L), cell free assay. It counts as biochemical. The conditions noted are these: 30 minutes at 37° C., read-out: IC50 (Table I, P236L). From the text: The utility of the pyrimidine-thioalkyl and alkylether anti-AIDS compounds of Formula IA of this invention can be determined by their ability to inhibit viral reverse transcriptase, an enzyme essential for human immunodeficiency virus replication. This enzyme has characteristics which differentiate it from other known cellular polymerases and it is a unique enzyme which is not found in uninfected cells. Viral reverse transcriptase (Wild Type) is found in extracts from bacterial clones prepared according to the procedure described in AIDS Virus Reverse Transcriptase defined by high level expression in Escherichia coli, EMBO J. 6:3133-3137 (1987). P236L viral reverse transcriptase is obtained by PNAS 90: 4713-4717 (1993). Inhibition of this enzyme is determined in a cell free assay which measures the level of radioactive precursors incorporated into DNA. Extracts prepared according to the procedure of Science, 1125-1129 (1981) are incubated in a mixture of inhibitor, 20 mM dithiothreitol, 60 mM sodium chloride, 0.05% NP-40, 10 mM magnesium chloride, 50 mM Tris pH 8.3, 10 μM [^35 S]-labeled deoxynuleoside-5'-triphosphate, 10 μg/ml RNA template (poly rC or poly rG) and 5 μg/ml DNA primer (oligo dG or oligo dT) for 30 minutes at 37° C. Incorporation of radio-labeled percursor is determined by spotting aliquots of the reaction mixture on DE81 paper, washing the papers to remove unincorporated percursor, drying and determining counts. The results (IC50 means the concentration, in μM of drug, required to inhibit the reverse transcriptase activity (P236L and Wild Type) to the extent of 50%) of various assay(s) are combined and reported as % inhibition and/or IC50 (calculated) in Table I (P236L) and Table II (Wild Type).
Turning to `Nc1cc(Cl)nc(SCc2ccccc2)n1` [Example 34A, 4-amino-6-chloro-2-(benzylthio)-pyrimidine], the IC50 (as a rule, the concentration that inhibits the measured activity by half) turned out to be 2000 nM.
On the same count and under the same terms, next, `CCCNc1cc(Cl)nc(SCc2ccccc2)n1` [Example 87, 4-propylamino-6-chloro-2-(benzylthio)-pyrimidine]: 100000 nM; `Nc1cc(Cl)nc(SCc2cc(Br)ccn2)n1` [Example 119, 4-amino-6-chloro-2-[2-(4-bromo)pyridylmethylthio]-pyrimidine]: 40 nM; `Nc1cc(Cl)nc(SCc2cccc3ccccc23)n1` [Example 58, 4-amino-6-chloro-2-(1-naphthylmethylthio)-pyrimidine]: 30 nM.
Same read-out and setting: next, `Nc1ccnc(SCc2cccc(Br)c2)n1` [Example 95, 4-amino-2-(3-bromophenylmethylthio)-pyrimidine]: 1000 nM; `Nc1cc(Cl)nc(SCc2cc3ccccc3o2)n1` [Example 153, 4-Amino-6-chloro-2-[(benzofuran-2-ylmethyl)thio]pyrimidine]: 10000 nM.
On the same count and under the same terms, next, `NC(=O)c1ccnc(CSc2nc(N)cc(Cl)n2)c1` [Example 163, 4-amino-6-chloro-2-[2-(4-carboxamido)-pyridylmethylthio]-pyrimidine]: 20000 nM.
Take `CCC(CC)c1ccnc(CSc2nc(N)cc(Cl)n2)c1` [Example 151, 4-amino-6-chloro-2-[2-(4-(3-pentyl))pyridylmethylthio]-pyrimidine]: the IC50 was 60 nM.
The same measure, in the same setting: with `CC(C)(C)c1ccc(CSc2nc(N)cc(Cl)n2)cc1` [Example 47, 4-amino-6-chloro-2-(4-t-butylphenylmethylthio)-pyrimidine] the figure was 1000 nM.
On the same count and under the same terms, next, `Cc1cccnc1CSc1nc(N)cc(Cl)n1` [Example 117, 4-amino-6-chloro-2-[2-(3-methyl)pyridylmethylthio]-pyrimidine]: 1050 nM; `Cc1cc(C)nc(CSc2nc(N)cc(Cl)n2)n1` [Example 127, 4-amino-6-chloro-2-[2-(4,6-dimethyl)pyrimidinylmethylthio]-pyrimidine]: 1000 nM; `Nc1cc(Cl)nc(SCc2ccc3c(c2)OCO3)n1` [Example 186, 4-Amino-6-chloro-2-[(piperon-5-ylmethyl)thio]pyrimidine]: 500 nM.
Same read-out and setting: next, `Nc1cc(Cl)nc(SCc2cc(CO)ccn2)n1` [Example 164, 4-amino-6-chloro-2-[2-(4-hydroxymethyl)-pyridylmethylthio]-pyrimidine]: 1000 nM; `Cc1ccc(CSc2nc(N)cc(Cl)n2)cc1` [Example 37, 4-amino-6-chloro-2-(4-methylphenylmethylthio)-pyrimidine]: 330 nM.
As for `Nc1cc(Cl)nc(SCc2ccc3ncccc3c2)n1` [Example 178, 4-Amino-6-chloro-2-[(quinolin-6-ylmethyl)thio]pyrimidine], the IC50 amounted to 500 nM.
Same read-out and setting: with `Nc1cc(Cl)nc(SCc2cccc(Cl)n2)n1` [Example 112, 4-amino-6-chloro-2-[2-(6-chloro)pyridylmethylthio]-pyrimidine] the figure was 70 nM; with `Nc1cc(Cl)nc(SCc2ccc(Cl)c(Cl)c2)n1` [Example 49, 4-amino-6-chloro-2-(3,4-dichlorophenylmethylthio)-pyrimidine], 60 nM; with `Nc1cc(Cl)nc(SCC(=O)c2ccccc2)n1` [Example 100, 4-amino-6-chloro-2-[2-(1-phenyl-1-ethanon)thio]-pyrimidine], 2000 nM.
On the same count and under the same terms, with `Nc1cc(Cl)nc(SCc2cccc(I)c2)n1` [Example 44, 4-amino-6-chloro-2-(3-iodophenylmethylthio)-pyrimidine] the figure was 600 nM; with `Nc1cc(Cl)nc(SCc2ccc3cc(F)c(F)cc3c2)n1` [Example 60, 4-amino-6-chloro-2-(6,7-difluoro-2-naphthylmethylthio)-pyrimidine], 10000 nM.
As for `CC(C)Oc1cccc(CSc2nc(N)cc(Cl)n2)c1` [Example 109, 4-amino-6-chloro-2-(3-isopropoxyphenylmethylthio)-pyrimidine], the IC50 came out at 2000 nM.
Same read-out and setting: next, `Cc1cncc(CSc2nc(N)cc(Cl)n2)n1` [Example 173, 4-Amino-6-chloro-2-[(6-methylpyrazin-2-ylmethyl)thio]pyrimidine]: 10000 nM.
Still for that read-out and setting: with `CN(C)c1ccnc(CSc2nc(N)cc(Cl)n2)c1` [Example 146, 4-amino-6-chloro-2-[2-(4-dimethylamino)pyridylmethylthio]-pyrimidine] the figure was 10 nM; with `Nc1cc(Cl)nc(SCc2cccnc2)n1` [Example 57, 4-amino-6-chloro-2-(3-pyridylmethylthio)-pyrimidine], 10000 nM.
On the same count and under the same terms, next, `COc1cc(C)nc(CSc2nc(N)cc(Cl)n2)c1` [Example 120, 4-amino-6-chloro-2-[2-(4-methoxy-6-methyl)-pyridylmethylthio]-pyrimidine]: 20 nM.
As for `Nc1cc(Cl)nc(SCc2cc(Cl)ccn2)n1` [Example 111, 4-amino-6-chloro-2-[2-(4-chloro)-5 pyridylmethylthio]-pyrimidine], the 50% inhibitory concentration (IC50) stood at 30 nM.
Still for that read-out and setting: next, `Nc1cc(Cl)nc(SCc2ccc(Cl)s2)n1` [Example 144, 4-Amino-6-chloro-2-[(5-chlorothiophen-2-ylmethyl)thio]pyrimidine]: 5000 nM; `CCC(C)c1ccnc(CSc2nc(N)cc(Cl)n2)c1` (stereo not shown) [Example 145, 4-amino-6-chloro-2-[2-(4-(2-butyl))pyridylmethylthio]-pyrimidine]: 10 nM; `Nc1nc(SCc2ccc3ccccc3c2)nc(Cl)c1F` [Example 91, 4-amino-5-fluoro-6-chloro-2-(2-naphthylmethylthio)-pyrimidine]: 2500 nM.
As to “4-Amino-6-chloro-2-[[(5-chloroimidazo[1,2-a]pyridin-2-yl)methyl]thio]-pyrimidine [Example 172]”, the IC50 was determined as 50000 nM.
On the same count and under the same terms, with `COc1cccc(CSc2nc(N)cc(Cl)n2)c1` [Example 39, 4-amino-6-chloro-2-(3-methoxyphenylmethylthio)-pyrimidine] the figure was 160 nM; with `Cc1cnc(CSc2nc(N)cc(Cl)n2)cc1C` [Example 140, 4-amino-6-chloro-2-[2-(4,5-dimethyl)pyridylmethylthio]-pyrimidine], 20 nM.
On to `Nc1cc(Cl)nc(SCc2cc3ccccc3cn2)n1` [Example 182, 4-Amino-6-chloro-2-[(isoquinolin-3-ylmethyl)thio]pyrimidine], for which the IC50 came to 20 nM.
For `Cc1ccccc1CSc1nc(N)cc(Cl)n1` [Example 35, 4-amino-6-chloro-2-(2-methylphenylmethylthio)-pyrimidine], the IC50 is 300 nM.

The same assay, now with this note: IC50 (Table I, P236L), 30 minutes at 37° C.
`COC(=O)c1ccc(CSc2nc(N)cc(Cl)n2)nc1` [Example 188, 4-amino-6-chloro-2[2-(5-carbomethyoxy)pyridylmethylthio]pyrimidine] registered an IC50 of 50000 nM.
On the same count and under the same terms, with `Nc1cc(Cl)nc(SCc2cccc3cccnc23)n1` [Example 180, 4-Amino-6-chloro-2-[(quinolin-8-ylmethyl)thio]pyrimidine] the figure was 50 nM; with `CNc1cc(C#N)nc(SCc2ccc3ccccc3c2)n1` [Example 288, 6-methylamino-2-(2-naphthylmethyl)thio-4-pyrimidine carbonitrile], 50000 nM.
